Columns and labels:
[1] = target: cAMP-dependent protein kinase catalytic subunit beta (Homo sapiens) (UniProt P22694); details: Compound concentration 1000.0 nM
[2] = target: Myotonin-protein kinase (Homo sapiens) (UniProt Q09013); details: Compound concentration 1000.0 nM
[3] = target: Cyclin-dependent kinase 7 (Homo sapiens, UniProt P50613); details: Compound concentration 1000.0 nM
[4] = target: Ephrin type-A receptor 3 (Homo sapiens) (UniProt P29320); details: Compound concentration 1000.0 nM
[5] = target: Mitogen-activated protein kinase kinase kinase 14 (Homo sapiens) (UniProt Q99558); details: Compound concentration 1000.0 nM
Sequence of Mitogen-activated protein kinase kinase kinase 14 (Homo sapiens) (Q99558 whole entry, looked up): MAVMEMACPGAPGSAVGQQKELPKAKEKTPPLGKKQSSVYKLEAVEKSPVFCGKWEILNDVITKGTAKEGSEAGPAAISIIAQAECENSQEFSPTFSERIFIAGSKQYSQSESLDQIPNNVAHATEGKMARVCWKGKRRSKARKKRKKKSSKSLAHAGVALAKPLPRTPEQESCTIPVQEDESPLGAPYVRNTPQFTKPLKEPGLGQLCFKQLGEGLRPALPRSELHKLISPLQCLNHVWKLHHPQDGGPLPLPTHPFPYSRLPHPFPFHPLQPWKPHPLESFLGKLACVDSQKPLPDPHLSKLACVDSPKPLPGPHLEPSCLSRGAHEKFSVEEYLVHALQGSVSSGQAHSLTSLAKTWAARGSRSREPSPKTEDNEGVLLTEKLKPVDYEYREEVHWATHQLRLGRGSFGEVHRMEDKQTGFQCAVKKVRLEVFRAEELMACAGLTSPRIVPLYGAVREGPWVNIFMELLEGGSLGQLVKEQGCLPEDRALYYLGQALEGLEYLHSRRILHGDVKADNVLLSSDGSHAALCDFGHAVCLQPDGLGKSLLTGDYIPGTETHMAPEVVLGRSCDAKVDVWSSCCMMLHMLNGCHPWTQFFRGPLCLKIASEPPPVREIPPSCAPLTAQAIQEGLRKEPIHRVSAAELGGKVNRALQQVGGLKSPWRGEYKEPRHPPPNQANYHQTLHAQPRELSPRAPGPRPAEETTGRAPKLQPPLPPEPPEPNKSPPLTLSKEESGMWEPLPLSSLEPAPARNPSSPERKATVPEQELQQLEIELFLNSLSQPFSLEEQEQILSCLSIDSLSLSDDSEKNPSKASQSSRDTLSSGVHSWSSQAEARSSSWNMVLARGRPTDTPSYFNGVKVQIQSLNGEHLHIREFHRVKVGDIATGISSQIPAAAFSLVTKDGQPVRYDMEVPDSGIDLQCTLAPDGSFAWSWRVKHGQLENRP

[6] = target: Serine/threonine-protein kinase OSR1 (Homo sapiens) (UniProt O95747); details: Compound concentration 1000.0 nM
[7] = target: ALK tyrosine kinase receptor (Homo sapiens) (UniProt Q9UM73); details: Compound concentration 1000.0 nM
[8] = target: Receptor-interacting serine/threonine-protein kinase 2 (Homo sapiens) (UniProt O43353); details: Compound concentration 1000.0 nM
[9] = target: T1, 5-hydroxytryptamine receptor 1A (Homo sapiens) (UniProt P08908); details: Compound concentration 10.0 uM
T1 sequence (whole entry): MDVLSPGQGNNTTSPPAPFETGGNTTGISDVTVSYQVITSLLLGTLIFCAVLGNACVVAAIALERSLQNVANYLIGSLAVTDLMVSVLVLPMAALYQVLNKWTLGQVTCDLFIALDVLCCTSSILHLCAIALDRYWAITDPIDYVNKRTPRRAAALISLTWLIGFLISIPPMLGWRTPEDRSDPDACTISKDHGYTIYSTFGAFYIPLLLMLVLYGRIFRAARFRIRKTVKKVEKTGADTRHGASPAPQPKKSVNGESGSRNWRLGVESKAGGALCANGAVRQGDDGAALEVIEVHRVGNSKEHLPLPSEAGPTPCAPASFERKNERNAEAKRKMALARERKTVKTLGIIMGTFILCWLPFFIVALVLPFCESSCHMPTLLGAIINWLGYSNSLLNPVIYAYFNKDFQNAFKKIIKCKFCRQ

[10] = target: Kappa-type opioid receptor (Homo sapiens) (UniProt P41145); details: Compound concentration 10.0 uM
[11] = target: Interferon-induced, double-stranded RNA-activated protein kinase (Homo sapiens) (UniProt P19525); details: Compound concentration 1000.0 nM
Sequence of Interferon-induced, double-stranded RNA-activated protein kinase (Homo sapiens) (P19525 whole entry, the tested form may be a part): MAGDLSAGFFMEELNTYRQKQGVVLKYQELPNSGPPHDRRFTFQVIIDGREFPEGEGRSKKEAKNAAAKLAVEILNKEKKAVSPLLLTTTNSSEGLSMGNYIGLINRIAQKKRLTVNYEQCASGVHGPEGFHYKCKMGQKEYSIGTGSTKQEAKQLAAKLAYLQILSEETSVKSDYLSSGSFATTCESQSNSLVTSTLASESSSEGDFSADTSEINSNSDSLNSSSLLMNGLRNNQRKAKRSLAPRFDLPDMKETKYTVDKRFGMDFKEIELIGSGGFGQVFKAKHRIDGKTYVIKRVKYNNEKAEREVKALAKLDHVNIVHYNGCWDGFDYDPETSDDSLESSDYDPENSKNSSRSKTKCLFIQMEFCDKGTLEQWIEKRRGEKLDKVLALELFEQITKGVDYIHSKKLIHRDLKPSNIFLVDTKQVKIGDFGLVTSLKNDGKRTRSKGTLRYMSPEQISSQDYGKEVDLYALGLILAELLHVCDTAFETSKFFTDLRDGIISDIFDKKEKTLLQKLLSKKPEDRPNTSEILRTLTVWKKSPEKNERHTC

[12] = target: Phosphatidylinositol 3-kinase C2 domain-containing subunit gamma (Homo sapiens) (UniProt O75747); details: Compound concentration 1000.0 nM
Sequence of Phosphatidylinositol 3-kinase C2 domain-containing subunit gamma (Homo sapiens) (O75747 whole entry, the tested form may be a part): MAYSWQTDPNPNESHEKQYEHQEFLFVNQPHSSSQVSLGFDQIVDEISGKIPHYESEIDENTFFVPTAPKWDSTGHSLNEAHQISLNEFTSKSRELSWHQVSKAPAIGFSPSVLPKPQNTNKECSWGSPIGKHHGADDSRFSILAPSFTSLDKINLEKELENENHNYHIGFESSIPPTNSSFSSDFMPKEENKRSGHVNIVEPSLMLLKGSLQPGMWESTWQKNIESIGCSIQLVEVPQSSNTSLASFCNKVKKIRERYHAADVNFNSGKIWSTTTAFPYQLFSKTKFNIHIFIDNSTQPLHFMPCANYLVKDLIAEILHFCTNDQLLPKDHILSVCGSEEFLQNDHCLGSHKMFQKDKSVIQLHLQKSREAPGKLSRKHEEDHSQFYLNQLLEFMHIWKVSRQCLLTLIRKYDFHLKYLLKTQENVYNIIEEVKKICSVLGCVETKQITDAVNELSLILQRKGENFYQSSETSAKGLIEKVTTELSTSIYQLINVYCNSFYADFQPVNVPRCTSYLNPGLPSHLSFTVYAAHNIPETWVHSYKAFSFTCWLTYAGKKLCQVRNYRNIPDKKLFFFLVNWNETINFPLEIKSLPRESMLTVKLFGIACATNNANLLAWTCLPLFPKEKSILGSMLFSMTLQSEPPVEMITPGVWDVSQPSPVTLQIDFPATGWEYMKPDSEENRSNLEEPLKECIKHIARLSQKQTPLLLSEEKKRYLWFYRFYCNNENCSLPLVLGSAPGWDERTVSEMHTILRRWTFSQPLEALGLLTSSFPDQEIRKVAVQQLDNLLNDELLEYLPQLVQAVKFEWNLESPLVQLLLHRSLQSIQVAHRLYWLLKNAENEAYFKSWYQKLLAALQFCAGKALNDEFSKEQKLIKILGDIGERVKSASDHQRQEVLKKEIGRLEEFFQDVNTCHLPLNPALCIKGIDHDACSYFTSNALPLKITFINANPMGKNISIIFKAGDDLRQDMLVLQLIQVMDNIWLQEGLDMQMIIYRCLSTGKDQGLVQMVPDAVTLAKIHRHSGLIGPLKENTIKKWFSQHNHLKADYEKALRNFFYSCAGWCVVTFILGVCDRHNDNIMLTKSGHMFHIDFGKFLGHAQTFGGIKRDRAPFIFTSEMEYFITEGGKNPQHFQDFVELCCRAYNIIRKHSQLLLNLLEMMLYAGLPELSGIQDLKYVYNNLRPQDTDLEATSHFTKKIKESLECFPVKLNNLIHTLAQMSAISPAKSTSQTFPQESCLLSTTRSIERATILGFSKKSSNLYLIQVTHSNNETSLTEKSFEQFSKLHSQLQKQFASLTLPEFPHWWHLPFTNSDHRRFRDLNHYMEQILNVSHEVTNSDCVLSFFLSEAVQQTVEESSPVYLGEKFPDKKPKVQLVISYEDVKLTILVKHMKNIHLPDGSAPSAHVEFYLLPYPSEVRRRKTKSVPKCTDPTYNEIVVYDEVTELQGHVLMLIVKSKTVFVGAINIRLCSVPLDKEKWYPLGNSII

[13] = target: Serine/threonine-protein kinase 17A (Homo sapiens) (UniProt Q9UEE5); details: Compound concentration 1000.0 nM
Sequence of Serine/threonine-protein kinase 17A (Homo sapiens) (Q9UEE5 whole entry): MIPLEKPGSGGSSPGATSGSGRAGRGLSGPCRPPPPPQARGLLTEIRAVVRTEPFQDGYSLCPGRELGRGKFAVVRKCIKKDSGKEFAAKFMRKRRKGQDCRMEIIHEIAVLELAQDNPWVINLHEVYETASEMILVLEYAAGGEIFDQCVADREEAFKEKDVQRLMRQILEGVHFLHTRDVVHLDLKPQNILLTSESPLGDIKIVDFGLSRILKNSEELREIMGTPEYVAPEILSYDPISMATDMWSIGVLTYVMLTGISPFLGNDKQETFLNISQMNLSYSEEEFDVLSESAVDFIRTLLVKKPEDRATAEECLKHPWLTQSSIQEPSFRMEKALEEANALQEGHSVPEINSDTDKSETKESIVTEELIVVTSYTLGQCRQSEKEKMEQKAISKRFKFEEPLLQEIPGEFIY

[14] = test system: Tyrosine-protein kinase ABL1 (Homo sapiens), P00519 [M351T]; details: Compound concentration 1000.0 nM
[15] = target: Mitogen-activated protein kinase kinase kinase kinase 2 (Homo sapiens) (UniProt Q12851); details: Compound concentration 1000.0 nM
[16] = target: Mitogen-activated protein kinase 15 (Homo sapiens) (UniProt Q8TD08); details: Compound concentration 1000.0 nM
Sequence of Mitogen-activated protein kinase 15 (Homo sapiens) (Q8TD08 whole entry): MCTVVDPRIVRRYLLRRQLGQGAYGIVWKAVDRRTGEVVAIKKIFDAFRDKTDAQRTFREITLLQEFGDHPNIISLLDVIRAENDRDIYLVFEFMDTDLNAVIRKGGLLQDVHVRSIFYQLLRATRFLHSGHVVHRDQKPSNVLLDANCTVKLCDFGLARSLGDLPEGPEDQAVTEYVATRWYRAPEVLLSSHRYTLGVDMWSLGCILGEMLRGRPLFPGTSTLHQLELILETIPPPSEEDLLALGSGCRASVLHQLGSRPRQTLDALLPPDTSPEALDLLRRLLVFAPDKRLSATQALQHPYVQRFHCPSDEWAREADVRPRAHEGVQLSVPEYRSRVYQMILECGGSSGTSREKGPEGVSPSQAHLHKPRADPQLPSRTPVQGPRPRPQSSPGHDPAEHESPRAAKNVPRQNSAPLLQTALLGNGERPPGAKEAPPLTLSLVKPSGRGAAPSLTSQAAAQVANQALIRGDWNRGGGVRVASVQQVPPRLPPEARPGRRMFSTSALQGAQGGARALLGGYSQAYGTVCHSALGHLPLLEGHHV

[17] = target: Tyrosine-protein kinase Fes/Fps (Homo sapiens) (UniProt P07332); details: Compound concentration 1000.0 nM
[18] = target: Tyrosine-protein kinase CSK (Homo sapiens) (UniProt P41240); details: Compound concentration 1000.0 nM
[19] = target: Rhodopsin kinase GRK1 (Homo sapiens) (UniProt Q15835); details: Compound concentration 1000.0 nM
[20] = target: Activin receptor type-2A (Homo sapiens) (UniProt P27037); details: Compound concentration 1000.0 nM
[21] = target: Death-associated protein kinase 3 (Homo sapiens) (UniProt O43293); details: Compound concentration 1000.0 nM
[22] = target: T2, 5-hydroxytryptamine receptor 3A (Homo sapiens) (UniProt P46098); details: Compound concentration 10.0 uM
T2 sequence (whole entry): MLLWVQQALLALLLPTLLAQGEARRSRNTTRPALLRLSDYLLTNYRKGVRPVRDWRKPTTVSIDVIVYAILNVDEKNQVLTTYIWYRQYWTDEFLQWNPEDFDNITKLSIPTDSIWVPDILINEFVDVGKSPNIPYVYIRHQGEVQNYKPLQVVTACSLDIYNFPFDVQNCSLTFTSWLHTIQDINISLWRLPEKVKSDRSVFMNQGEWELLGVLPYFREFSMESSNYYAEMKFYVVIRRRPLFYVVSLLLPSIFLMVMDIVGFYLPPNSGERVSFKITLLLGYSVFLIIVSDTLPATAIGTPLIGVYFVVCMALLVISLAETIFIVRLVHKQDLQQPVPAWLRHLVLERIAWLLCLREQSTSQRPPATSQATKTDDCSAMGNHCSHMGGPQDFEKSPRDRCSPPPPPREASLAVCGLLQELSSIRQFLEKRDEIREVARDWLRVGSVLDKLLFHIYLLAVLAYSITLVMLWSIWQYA

[23] = target: Receptor-type tyrosine-protein kinase FLT3 (Homo sapiens) (UniProt P36888); details: Compound concentration 1000.0 nM
[24] = target: Phosphatidylinositol 4-phosphate 5-kinase type-1 gamma (Homo sapiens) (UniProt O60331); details: Compound concentration 1000.0 nM
[25] = target: Mitogen-activated protein kinase kinase kinase 10 (Homo sapiens) (UniProt Q02779); details: Compound concentration 1000.0 nM
[26] = target: Mitogen-activated protein kinase kinase kinase 12 (Homo sapiens) (UniProt Q12852); details: Compound concentration 1000.0 nM
[27] = target: Serine/threonine-protein kinase DCLK1 (Homo sapiens) (UniProt O15075); details: Compound concentration 1000.0 nM
[28] = target: Serine/threonine-protein kinase TNNI3K (Homo sapiens) (UniProt Q59H18); details: Compound concentration 1000.0 nM
[29] = target: Serine/threonine-protein kinase PAK 3 (Homo sapiens) (UniProt O75914); details: Compound concentration 1000.0 nM
[30] = target: Serine/threonine-protein kinase WNK4 (Homo sapiens) (UniProt Q96J92); details: Compound concentration 1000.0 nM
[31] = target: Serine/threonine-protein kinase Nek6 (Homo sapiens) (UniProt Q9HC98); details: Compound concentration 1000.0 nM
Sequence of Serine/threonine-protein kinase Nek6 (Homo sapiens) (Q9HC98 whole entry): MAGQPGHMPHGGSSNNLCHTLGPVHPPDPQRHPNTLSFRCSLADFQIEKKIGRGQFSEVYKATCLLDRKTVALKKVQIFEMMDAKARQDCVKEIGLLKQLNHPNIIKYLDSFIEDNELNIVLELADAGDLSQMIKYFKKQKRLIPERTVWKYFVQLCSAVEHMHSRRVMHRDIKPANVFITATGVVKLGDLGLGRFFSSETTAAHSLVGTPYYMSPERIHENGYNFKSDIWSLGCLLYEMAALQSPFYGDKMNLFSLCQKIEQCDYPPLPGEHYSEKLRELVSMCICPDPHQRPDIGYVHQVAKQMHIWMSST

[32] = target: BMP-2-inducible protein kinase (Homo sapiens) (UniProt Q9NSY1); details: Compound concentration 1000.0 nM
[33] = target: Serine/threonine-protein kinase Sgk2 (Homo sapiens) (UniProt Q9HBY8); details: Compound concentration 1000.0 nM

Sequence of Myotonin-protein kinase (Homo sapiens) (Q09013 whole entry): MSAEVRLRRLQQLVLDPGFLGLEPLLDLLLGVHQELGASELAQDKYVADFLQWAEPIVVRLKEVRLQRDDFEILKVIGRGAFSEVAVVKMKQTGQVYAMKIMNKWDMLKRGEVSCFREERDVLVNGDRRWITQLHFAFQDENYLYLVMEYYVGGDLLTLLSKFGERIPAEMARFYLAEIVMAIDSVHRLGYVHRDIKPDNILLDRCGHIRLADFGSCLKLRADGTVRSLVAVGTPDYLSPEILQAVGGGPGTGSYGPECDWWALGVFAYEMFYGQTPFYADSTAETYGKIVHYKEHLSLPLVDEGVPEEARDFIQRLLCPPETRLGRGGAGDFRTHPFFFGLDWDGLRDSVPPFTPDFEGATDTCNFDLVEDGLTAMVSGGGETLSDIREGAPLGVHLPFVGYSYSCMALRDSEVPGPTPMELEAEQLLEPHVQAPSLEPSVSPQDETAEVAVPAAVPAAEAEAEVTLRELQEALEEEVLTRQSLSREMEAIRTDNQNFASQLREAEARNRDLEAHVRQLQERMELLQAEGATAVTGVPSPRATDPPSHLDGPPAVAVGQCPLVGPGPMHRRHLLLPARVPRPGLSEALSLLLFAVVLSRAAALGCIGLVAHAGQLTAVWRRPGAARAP

| SMILES | residual activity [1] | residual activity [2] | residual activity [3] | residual activity [4] | residual activity [5] | residual activity [6] | residual activity [7] | residual activity [8] | inhibition [9] | inhibition [10] | residual activity [11] | residual activity [12] | residual activity [13] | residual activity [14] | residual activity [15] | residual activity [16] | residual activity [17] | residual activity [18] | residual activity [19] | residual activity [20] | also measured |
| --- | --- | --- | --- | --- | --- | --- | --- | --- | --- | --- | --- | --- | --- | --- | --- | --- | --- | --- | --- | --- | --- |
| Cn1cncc1[C@@](O)(COc1ccc(C#N)cc1-c1ccc(OC(F)(F)F)cc1)c1ccc(C#N)cc1 [A-108] | 100% | 94% | 63% | 100% | 92% | 75% | 70% | 100% | -6.52% | 1.27% | 100% | 61% | 100% | 6.2% | 100% | 100% | 100% | 100% | 100% | 98% | residual activity [21]: 100%; inhibition [22]: -0.62%; residual activity [23]: 100%; residual activity [24]: 100%; residual activity [25]: 98%; residual activity [26]: 100%; residual activity [27]: 87%; residual activity [28]: 100%; residual activity [29]: 91%; residual activity [30]: 85%; residual activity [31]: 95%; residual activity [32]: 79%; residual activity [33]: 100% |
| Cn1cncc1[C@](O)(COc1ccc(C#N)cc1-c1ccc(OC(F)(F)F)cc1)c1ccc(C#N)cc1 [ABT-100] | 93% | 98% | 95% | 90% | 88% | 100% | 100% | 100% | 10.8% | -7.18% | 100% | 81% | 100% | 100% | 100% | 58% | 100% | 82% | 95% | 100% | residual activity [21]: 88%; inhibition [22]: 17.6%; residual activity [23]: 87%; residual activity [24]: 93%; residual activity [25]: 55%; residual activity [26]: 100%; residual activity [27]: 94%; residual activity [28]: 82%; residual activity [29]: 96%; residual activity [30]: 100%; residual activity [31]: 95%; residual activity [32]: 97%; residual activity [33]: 100% |

Source: ChEMBL document CHEMBL4507257, “Data for DCP probe ABT-100” (2021)
